Experimental findings from patent US20160318866A1, “SUBSTITUTED BIPIPERIDINYL DERIVATIVES” (Bayer Pharma Aktiengesellschaft, priority 2013, published 2016) are described below.

Data set [1] relates to Wistar rat. As to the kind of experiment: Measurement of blood flow and blood pressure in rats (Wistar rats). In kind it is in vivo. As to conditions: steady state, 32 min after start, vs initial flow, mean. The procedure:
(§1) Wistar rats (Hsd Cpb:Wu) of a weight of 250-350 g or ZDF rats (ZDF/Crl-Lepr fa/fa) of a weight of 330-520 g were anaesthetized using 2.5% isoflurane in an oxygen/laughing gas mixture (40:60). To determine the blood flow in the carotid artery and the femoral artery, the anaesthetized rat was brought into a supine position, and the left carotid artery and the right femoral artery are then carefully exposed. Blood flow was measured by placing flow probes (Transonic Flowprobe) at the vessels. By introducing a PE50 artery catheter into the left femoral artery, blood pressure and heart rate were determined (Transducer Ref. 5203660: from Braun CH). The substances were administered as a bolus injection or a continuous infusion via a venous catheter in the left femoral vein.
(§2) Following the preparation of the animals, there was a 5 min baseline interval. Infusion of the AR alphα2C receptor antagonist was then started. In the steady state (32 min after the start of the experiment), the femoral flow was determined in relation (% difference) to the initial flow.

The test system of data set [2] is diabetic (ZDFfa/fa) and healthy rats (Wistar). Put plainly: Assay of perfusion-enhancing substances (microcirculation), laser doppler at the paw. In kind it is in vivo, rat. The settings on record: single oral dose. An excerpt: In diabetic (ZDFfa/fa) and healthy rats (Wistar), a laser doppler probe was fastened under anaesthesia conditions (isoflurane anaesthesia) at the sole of the paw for measuring cutaneous microcirculation. The test animals were once treated orally with the test substances. During the experiment, microperfusion and temperature of the lower extremities were documented continuously. Here, a temperature-sensitive laser doppler probe (Periflux, O2C) was fastened with adhesive to the paws of the animals, allowing the measurement of microperfusion and skin temperature. The microcirculation measurement values were measured on both paws 30 min after oral administration of the test substance. […] Also stated is the MED for the significant increase of skin temperature (ttest).

The subject of data set [3] is ZDF rat. As to the kind of experiment: Measurement of blood flow and blood pressure in rats (ZDF rats). In kind it is in vivo. The settings on record: for Change in the femoral flow in %: ZDF rat, steady state, 32 min after start, vs initial flow, mean. The procedure: as §1, §2
Where [4] appears, read: anaesthetized rats, same experiment as femoral flow, strain not specified.

As to `CC1CCCN(C2CCN(C(=O)c3ccc(C(C)(C)O)cc3)CC2)C1` (single isomer, unassigned) [Example 8, [4-(1-Hydroxy-1-methylethyl)phenyl)](3-methyl-1,4′-bipiperidin-1′-yl)methanone, (−)-enantiomer], the “Change in the femoral flow in %” value is on record as 14.2 (n = 3) % in data set [1] (10 μg/kg/min); 3.1 (n = 5) % in data set [1] (30 μg/kg/min infusion); 15.3 (n = 5) % in data set [1] (300 μg/kg/min infusion); 12.0 (n = 4) % in data set [3] (3 μg/kg/min infusion); 127.9% in data set [3] (10 μg/kg/min infusion); 144.4% in data set [3] (30 μg/kg/min infusion). For the same compound, the “factor by which microcirculation is improved at this dose compared to placebo” value in data set [2] (at the MED, 30 min after administration) worked out at 2.3 x. The “MED [mg/kg] skin temperature” value in data set [2] (minimum effective dose for significant increase of skin temperature (ttest)) worked out at 1 mg/kg. The “MED [mg/kg] microcirculation” value in data set [2] (minimum effective dose for significantly improved microcirculation vs placebo, 30 min after administration) amounted to 1 mg/kg. For the same compound, the blood pressure entry in data set [3] (setting [4]) is “no changes”. The heart rate entry in data set [3] (setting [4]) is listed as “no changes”.
